The NIST ThermoML archive (doi:10.1016/j.jct.2016.05.015)
Numbers after ± are expanded uncertainties.

What was measured:
[1] = 100 kPa, Liquid; for viscosity: Capillary tube (Ostwald / Ubbelohde) method; for speed of sound: Frequency=2 MHz, Linear variable-path acoustic interferometer; for mass density: Vibrating tube method
[2] = xn = mol fraction of the nth substance listed; conditions: 100 kPa, Liquid, x2 = 0; for viscosity: Capillary tube (Ostwald / Ubbelohde) method; for speed of sound: Frequency=2 MHz, Linear variable-path acoustic interferometer; for mass density: Vibrating tube method

Row | SMILES | viscosity ([1]; 303.15 K) [mPa·s] | speed of sound ([1]; 303.15 K) [m/s] | mass density ([1]; 303.15 K) [kg/m3] | viscosity ([1]; 308.15 K) [mPa·s] | speed of sound ([1]; 308.15 K) [m/s] | mass density ([1]; 308.15 K) [kg/m3] | viscosity ([1]; 313.15 K) [mPa·s] | mass density ([1]; 313.15 K) [kg/m3] | viscosity ([1]; 318.15 K) [mPa·s] | speed of sound ([1]; 318.15 K) [m/s] | mass density ([1]; 318.15 K) [kg/m3] | viscosity ([2]; 303.15 K) [mPa·s] | speed of sound ([2]; 303.15 K) [m/s] | mass density ([2]; 303.15 K) [kg/m3] | viscosity ([2]; 308.15 K) [mPa·s] | speed of sound ([2]; 308.15 K) [m/s] | mass density ([2]; 308.15 K) [kg/m3] | viscosity ([2]; 313.15 K) [mPa·s] | speed of sound ([2]; 313.15 K) [m/s] | mass density ([2]; 313.15 K) [kg/m3] | also measured
1 | Brc1ccccc1 [bromobenzene] | 0.982 ± 0.1 | 1136 ± 7 | 1481.52 ± 20 | 0.953 ± 0.1 | 1122 ± 6.9 | 1475.36 ± 20 | 0.892 ± 0.1 | 1468.02 ± 20 | 0.848 ± 0.1 | 1099 ± 6.7 | 1461.36 ± 20 |  |  |  |  |  |  |  |  |  | speed of sound ([1]; 313.15 K): 1109 ± 6.8 m/s
2 | Brc1ccccc1 [bromobenzene] + Nc1cccc(Cl)c1 |  |  |  |  |  |  |  |  |  |  |  | 0.982 ± 0.1 | 1136 ± 7 | 1481.52 ± 20 | 0.953 ± 0.1 | 1122 ± 6.9 | 1475.36 ± 20 | 0.892 ± 0.1 | 1109 ± 6.8 | 1468.02 ± 20 | viscosity ([2]; 318.15 K): 0.848 ± 0.1 mPa·s; speed of sound ([2]; 318.15 K): 1099 ± 6.7 m/s; mass density ([2]; 318.15 K): 1461.36 ± 20 kg/m3
3 | Clc1ccccc1 [chlorobenzene] | 0.712 ± 0.1 | 1248.2 ± 7.7 | 1095.54 ± 20 | 0.675 ± 0.1 | 1226 ± 7.5 | 1089.72 ± 20 | 0.634 ± 0.1 | 1084.71 ± 20 | 0.602 ± 0.1 | 1181 ± 7.3 | 1079.45 ± 20 |  |  |  |  |  |  |  |  |  | speed of sound ([1]; 313.15 K): 1206 ± 7.4 m/s
4 | Clc1ccccc1 [chlorobenzene] + Nc1cccc(Cl)c1 |  |  |  |  |  |  |  |  |  |  |  | 0.712 ± 0.1 | 1248.2 ± 7.7 | 1095.54 ± 20 | 0.675 ± 0.1 | 1226 ± 7.5 | 1089.72 ± 20 | 0.634 ± 0.1 | 1206 ± 7.4 | 1084.71 ± 20 | viscosity ([2]; 318.15 K): 0.602 ± 0.1 mPa·s; speed of sound ([2]; 318.15 K): 1181 ± 7.3 m/s; mass density ([2]; 318.15 K): 1079.45 ± 20 kg/m3
5 | O=[N+]([O-])c1ccccc1 [nitrobenzene] | 1.627 ± 0.1 | 1438 ± 8.8 | 1193.45 ± 20 | 1.498 ± 0.1 | 1420 ± 8.7 | 1188.29 ± 20 | 1.388 ± 0.1 | 1183.69 ± 20 | 1.275 ± 0.1 | 1385 ± 8.5 | 1177.32 ± 20 |  |  |  |  |  |  |  |  |  | 
6 | O=[N+]([O-])c1ccccc1 [nitrobenzene] + Nc1cccc(Cl)c1 |  |  |  |  |  |  |  |  |  |  |  | 1.627 ± 0.1 | 1438 ± 8.8 | 1193.45 ± 20 | 1.498 ± 0.1 | 1420 ± 8.7 | 1188.29 ± 20 | 1.388 ± 0.1 | 1402 ± 8.6 | 1183.69 ± 20 | viscosity ([2]; 318.15 K): 1.275 ± 0.1 mPa·s; speed of sound ([2]; 318.15 K): 1385 ± 8.5 m/s; mass density ([2]; 318.15 K): 1177.32 ± 20 kg/m3
